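Exposure lasted 48 hours, with cells grown in 96-well plates and compounds tested at five concentrations. GI50: concentration for 50% inhibition of growth.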 Active and inactive are the calls of the source. Rule as the data show it: active = GI50 up to about 1.1 µM and inactive = higher.
How the values were obtained:
Assay in all cases: NCI-60 cell line screen, 48 h
IGROV-1 = tested on: IGROV-1
OVCAR-4 = tested on: OVCAR-4
OVCAR-5 = tested on: OVCAR-5
DMS-273 = tested on: DMS-273
UACC-257 = tested on: UACC-257
HOP-62 = tested on: HOP-62
DMS-114 = tested on: DMS-114
LOX IMVI = tested on: LOX IMVI
SF-295 = tested on: SF-295
EKVX = tested on: EKVX
A549 = tested on: A549
A498 = tested on: A498
KM12 = tested on: KM12
M19-MEL = tested on: M19-MEL
M14 = tested on: M14
KM-20L2 = tested on: KM-20L2
SR = tested on: SR
ACHN = tested on: ACHN
SF-539 = tested on: SF-539
HL-60 = tested on: HL-60
OVCAR-8 = tested on: OVCAR-8
HT-29 = tested on: HT-29
NCI-H23 = tested on: NCI-H23
TK-10 = tested on: TK-10
NCI-H460 = tested on: NCI-H460
NCI-H226 = tested on: NCI-H226
SW-620 = tested on: SW-620
SN12C = tested on: SN12C
UO-31 = tested on: UO-31
HCC 2998 = tested on: HCC 2998
K562 = tested on: K562
MOLT-4 = tested on: MOLT-4
U-251 = tested on: U-251
OVCAR-3 = tested on: OVCAR-3
786-0 = tested on: 786-0
LXFL 529 = tested on: LXFL 529
HCT-116 = tested on: HCT-116
SNB-78 = tested on: SNB-78
CCRF-CEM = tested on: CCRF-CEM
SK-MEL-2 = tested on: SK-MEL-2
SK-MEL-5 = tested on: SK-MEL-5
HOP-92 = tested on: HOP-92
HCT-15 = tested on: HCT-15
SF-268 = tested on: SF-268
RPMI-8226 = tested on: RPMI-8226
HOP-18 = tested on: HOP-18
SK-MEL-28 = tested on: SK-MEL-28
UACC-62 = tested on: UACC-62
CAKI-1 = tested on: CAKI-1
NCI-H522 = tested on: NCI-H522
Malme-3M = tested on: Malme-3M
SNB-75 = tested on: SNB-75
DLD-1 = tested on: DLD-1
SK-OV-3 = tested on: SK-OV-3
RXF 393 = tested on: RXF 393
COLO 205 = tested on: COLO 205
SNB-19 = tested on: SNB-19

With `COc1c(C)c(O)c2c(c1C)OC(c1ccccc1)CC2=O` (centres undefined) the GI50 (IGROV-1) was 98.9 µM (inactive), the GI50 (OVCAR-4) was 67.9 µM (inactive) and the GI50 (OVCAR-5) was 61.8 µM (inactive). The GI50 (DMS-273) was 59.6 µM (inactive), the GI50 (UACC-257) was > 10 µM (inactive) and the GI50 (HOP-62) was > 100 µM (inactive). The GI50 (DMS-114) was 40.8 µM (inactive), the GI50 (LOX IMVI) was 46.3 µM (inactive) and the GI50 (SF-295) was 50.6 µM (inactive). The GI50 (EKVX) was 65.2 µM (inactive), the GI50 (A549) was 52.5 µM (inactive) and the GI50 (A498) was 19.9 µM (inactive). For the same compound, the GI50 (KM12) was 52.6 µM (inactive), the GI50 (M19-MEL) was 38.1 µM (inactive) and the GI50 (M14) was 67.1 µM (inactive). For the same compound, the GI50 (KM-20L2) was 31.6 µM (inactive), the GI50 (SR) was 23.5 µM (inactive) and the GI50 (ACHN) was 51.9 µM (inactive). For the same compound, the GI50 (SF-539) was 84.5 µM (inactive), the GI50 (HL-60) was 28.3 µM (inactive) and the GI50 (OVCAR-8) was 62.4 µM (inactive). The GI50 (HT-29) was 43.2 µM (inactive), the GI50 (NCI-H23) was 42.5 µM (inactive) and the GI50 (TK-10) was 42.9 µM (inactive). The GI50 (NCI-H460) was 36.8 µM (inactive), the GI50 (NCI-H226) was 38.9 µM (inactive) and the GI50 (SW-620) was 64.4 µM (inactive). For the same compound, the GI50 (SN12C) was 52.5 µM (inactive), the GI50 (UO-31) was 61.7 µM (inactive) and the GI50 (HCC 2998) was 56.1 µM (inactive). For the same compound, the GI50 (K562) was 35.1 µM (inactive), the GI50 (MOLT-4) was 31.8 µM (inactive) and the GI50 (U-251) was 67.9 µM (inactive). For the same compound, the GI50 (OVCAR-3) was > 100 µM (inactive), the GI50 (786-0) was 89.3 µM (inactive) and the GI50 (LXFL 529) was 35.2 µM (inactive). For the same compound, the GI50 (HCT-116) was 47.8 µM (inactive), the GI50 (SNB-78) was > 100 µM (inactive) and the GI50 (CCRF-CEM) was 31.4 µM (inactive). The GI50 (SK-MEL-2) was 22.4 µM (inactive), the GI50 (SK-MEL-5) was > 10 µM (inactive) and the GI50 (HOP-92) was 29.6 µM (inactive). For the same compound, the GI50 (HCT-15) was 30.5 µM, the GI50 (SF-268) was 56.9 µM (inactive) and the GI50 (RPMI-8226) was 36.1 µM (inactive). For the same compound, the GI50 (HOP-18) was 25 µM (inactive), the GI50 (SK-MEL-28) was 50.4 µM (inactive) and the GI50 (UACC-62) was 53 µM (inactive). The GI50 (CAKI-1) was 41.2 µM (inactive), the GI50 (NCI-H522) was 45.9 µM (inactive) and the GI50 (Malme-3M) was 24.6 µM (inactive). For the same compound, the GI50 (SNB-75) was 65 µM (inactive), the GI50 (DLD-1) was 66.1 µM (inactive) and the GI50 (SK-OV-3) was > 100 µM (inactive).
`CC1CC2C3CCC4=CC(=O)C=CC4(C)C3(F)C(O)CC2(C)C1(O)C(=O)CO.Cc1cc(NS(=O)(=O)c2ccc(/N=N\c3cc(/N=N/c4ccc(S(=O)(=O)Nc5cc(C)nc(C)n5)cc4)c(OC(=O)C(Cl)Cl)c4cccc(NC(=O)C(Cl)Cl)c34)cc2)nc(C)n1` was tested, and the GI50 (IGROV-1) was 24.5 µM (inactive), the GI50 (OVCAR-4) was 19.8 µM (inactive) and the GI50 (OVCAR-5) was 16.6 µM (inactive). The GI50 (DMS-273) was 21.5 µM (inactive), the GI50 (UACC-257) was 29.9 µM (inactive) and the GI50 (RXF 393) was 23.9 µM (inactive). The GI50 (COLO 205) was 28.2 µM (inactive), the GI50 (HOP-62) was 35.2 µM (inactive) and the GI50 (DMS-114) was 27.5 µM (inactive). The GI50 (LOX IMVI) was 19.2 µM (inactive), the GI50 (SF-295) was 28.2 µM (inactive) and the GI50 (EKVX) was 26.2 µM (inactive). The GI50 (A549) was 27 µM (inactive), the GI50 (A498) was 27.5 µM (inactive) and the GI50 (KM12) was 16.6 µM (inactive). The GI50 (M19-MEL) was 30.8 µM (inactive), the GI50 (M14) was 28.9 µM (inactive) and the GI50 (KM-20L2) was 25.6 µM (inactive). The GI50 (SR) was 25.4 µM (inactive), the GI50 (ACHN) was 19.5 µM (inactive) and the GI50 (SF-539) was 20.9 µM (inactive). For the same compound, the GI50 (HL-60) was 16 µM (inactive), the GI50 (OVCAR-8) was 22.9 µM (inactive) and the GI50 (HT-29) was 24.4 µM (inactive). The GI50 (NCI-H23) was 30.3 µM (inactive), the GI50 (TK-10) was 42.7 µM (inactive) and the GI50 (NCI-H460) was 25.9 µM (inactive). The GI50 (NCI-H226) was 22.2 µM (inactive), the GI50 (SW-620) was 20.8 µM (inactive) and the GI50 (SN12C) was 12.6 µM (inactive). For the same compound, the GI50 (UO-31) was 19.8 µM (inactive), the GI50 (HCC 2998) was 18.4 µM (inactive) and the GI50 (K562) was 30.6 µM (inactive). For the same compound, the GI50 (MOLT-4) was 27.4 µM (inactive), the GI50 (U-251) was 18 µM (inactive) and the GI50 (OVCAR-3) was 18.6 µM (inactive). The GI50 (786-0) was 18 µM (inactive), the GI50 (LXFL 529) was 10 µM (inactive) and the GI50 (HCT-116) was 34.3 µM (inactive). The GI50 (SNB-78) was 33.1 µM (inactive), the GI50 (SK-MEL-2) was 29.4 µM (inactive) and the GI50 (SNB-19) was 16.5 µM (inactive). For the same compound, the GI50 (SK-MEL-5) was 2.97 µM (inactive), the GI50 (HOP-92) was 32.5 µM (inactive) and the GI50 (HCT-15) was 15.6 µM. The GI50 (SF-268) was 26.4 µM (inactive), the GI50 (HOP-18) was 18.8 µM (inactive) and the GI50 (SK-MEL-28) was 27 µM (inactive). For the same compound, the GI50 (UACC-62) was 23.9 µM (inactive), the GI50 (CAKI-1) was 31.2 µM (inactive) and the GI50 (NCI-H522) was 15 µM (inactive). For the same compound, the GI50 (Malme-3M) was 20.6 µM (inactive), the GI50 (SNB-75) was 42.8 µM (inactive) and the GI50 (DLD-1) was 18 µM (inactive). The GI50 (SK-OV-3) was > 100 µM (inactive).
